Read-outs that look alike come from different tables or passages of the source.
System: subjects with BCR::ABL1 positive CML
Conditions: for SAE: Upper respiratory tract infection: Relation to study drug No
Experimental: Open-label phase-1 study at 3 clinical centers with dose-escalation using a 3 + 3 scheme with a starting dose of 50 mg/d given continuously. A 28-days of therapy was defined as a cycle. Dose escalation for the subsequent cohort depended on the results of the safety assessment of subjects in the preceding cohort during the 28 days of therapy. Once an MTD was identified expanded cohorts of 10–15 subjects were recruited at doses of interest below the MTD. A modified accelerated dose-escalation regimen was used up to a dose of 400 mg. Dose could be increased for subjects in whom the dose was reduced because of an adverse drug reaction (ADR). Severity of adverse events was assessed using NCI CTC AE v4 [28].
The primary objective was to determine the MTD and DLT of vamotinib during the 1st cycle of therapy. Secondary objectives were to assess the safety and tolerability of vamotinib, determine pharmacokinetics and determine efficacy by response criteria according to 2013 ELN [29].
Safety set consists of all patients, who at least once took the study drug.
Population for DLT evaluation consists of all patients, who received sufficient amount of the study drug during Cycle 1 for adequate DLT assessment.
The sufficient amount of the drug is determined as the intake of ≥ 75 % of the scheduled dose during Cycle 1, except for doses missed due to the DLT.

With `Cc1ccc(C(=O)Nc2ccc(CN3CCN(C)CC3)c(C(F)(F)F)c2)cc1C#Cc1nnc2ccccn12` [vamotinib] the “SAE: Infections and infestations” value (Cohort 1 50 mg N=3) was 0 n (%), the “SAE: Infections and infestations” value (Cohort 2 100 mg N=3) was 0 n (%) and the “SAE: Infections and infestations” value (Cohort 3 200 mg N=11) was 0 n (%). For the same compound, the “SAE: Infections and infestations” value (Cohort 4 400 mg N=12) was 0 n (%), the “SAE: Infections and infestations” value (Cohort 5 500 mg N=3) was 0 n (%) and the “SAE: Infections and infestations” value (Cohort 6 600 mg N=6) was 2 (33.3)/2 n (%). For the same compound, the “SAE: Infections and infestations” value (Cohort 7 750 mg N=4) was 0 n (%), the “SAE: Infections and infestations” value (Cohort 8 300 mg N=9) was 3 (33.3)/3 n (%) and the “SAE: Infections and infestations” value (Overall N=51) was 5 (9.8)/5 n (%). The “SAE: Upper respiratory tract infection” value (Cohort 1 (50 mg) N=3) was 0 n (%), the “SAE: Upper respiratory tract infection” value (Cohort 2 (100 mg) N=3) was 0 n (%) and the “SAE: Upper respiratory tract infection” value (Cohort 3 (200 mg) N=11) was 0 n (%). For the same compound, the “SAE: Upper respiratory tract infection” value (Cohort 4 (400 mg) N=12) was 0 n (%), the “SAE: Upper respiratory tract infection” value (Cohort 5 (500 mg) N=3) was 0 n (%) and the “SAE: Upper respiratory tract infection” value (Cohort 6 (600 mg) N=6) was 1 (16.7)/1 n (%). For the same compound, the “SAE: Upper respiratory tract infection” value (Cohort 7 (750 mg) N=4) was 0 n (%), the “SAE: Upper respiratory tract infection” value (Cohort 8 (300 mg) N=9) was 0 n (%) and the “SAE: Upper respiratory tract infection” value (Overall N=51) was 1 (2.0)/1 n (%). The Abdominal pain (human, in vivo) was 2 (4) Number of subjects (percent), the Abdominal pain upper (human, in vivo) was 4 (8) Number of subjects (percent) and the Alanine aminotransferase increased (human, in vivo) was 2 (4) Number of subjects (percent). The Anal fissure (human, in vivo) was 2 (4) Number of subjects (percent), the Blood cholesterol increased (human, in vivo) was 3 (6) Number of subjects (percent) and the “Discontinued: adverse event” value (human, in vivo) was 6. The “Discontinued: intolerable adverse drug reaction in the opinion of the investigator” value (human, in vivo) was 2, the Dry skin (human, in vivo) was 9 (18) Number of subjects (percent) and the “Dry skin and rash” value (human, in vivo) was 8 subjects. The “Dry skin, Grade 3” value (human, in vivo) was 0 n, the “Dry skin, Total” value (human, in vivo) was 9 n and the Dyspepsia (human, in vivo) was 2 (4) Number of subjects (percent). The Erythema (human, in vivo) was 4 (8) Number of subjects (percent), the “Erythema, Grade 3” value (human, in vivo) was 0 n and the “Erythema, Total” value (human, in vivo) was 4 n. For the same compound, the Eye disorders (human, in vivo) was 3 (6) Number of subjects (percent), the Gastrointestinal disorders (human, in vivo) was 17 (33) Number of subjects (percent) and the Hepatitis toxic (human, in vivo) was 1 (2) Number of subjects (percent). The Hepato-biliary disorders (human, in vivo) was 1 (2) Number of subjects (percent), the Leukopenia (human, in vivo) was 1 (2) Number of subjects (percent) and the “Low density lipoprotein increased” value (human, in vivo) was 2 (4) Number of subjects (percent). For the same compound, the Nausea (human, in vivo) was 6 (12) Number of subjects (percent), the “Pruritus, Grade 3” value (human, in vivo) was 1 n and the “Pruritus, Total” value (human, in vivo) was 5 n. The “Psoriasiform dermatitis, Grade 3” value (human, in vivo) was 4 n, the “Psoriasiform dermatitis, Total” value (human, in vivo) was 19 n and the Rash (human, in vivo) was 32 subjects. For the same compound, the Rash papular (human, in vivo) was 2 (4) Number of subjects (percent), the “Rash papular, Grade 3” value (human, in vivo) was 0 n and the “Rash papular, Total” value (human, in vivo) was 2 n. For the same compound, the “SAE: Acute sinusitis” value (human, in vivo) was 1 (2.0)/1 n (%), the “SAE: Appendicitis” value (human, in vivo) was 1 (2.0)/1 n (%) and the “SAE: Atrial fibrillation” value (human, in vivo) was 1 (2.0)/1 n (%). The “SAE: Cardiac disorders” value (human, in vivo) was 1 (2.0)/1 n (%), the “SAE: Disease progression” value (human, in vivo) was 1 (2.0)/1 n (%) and the “SAE: General disorders and administration site conditions” value (human, in vivo) was 1 (2.0)/1 n (%). The “SAE: Peritonitis” value (human, in vivo) was 1 (2.0)/1 n (%), the “SAE: Pneumonia” value (human, in vivo) was 1 (2.0)/1 n (%) and the “Toxic skin eruption, Grade 3” value (human, in vivo) was 7 n. For the same compound, the “Toxic skin eruption, Total” value (human, in vivo) was 9 n, the Transaminases increased (human, in vivo) was 1 (2) Number of subjects (percent) and the “dose-reduction because of rash” value (human, in vivo) was 9 n. The “study withdrawal because of rash” value (human, in vivo) was 6 n, the “time after which skin lesions were resolved” value (human, in vivo) was 4–6 months and the “time to resolution of skin toxicity after discontinuation of the drug” value (human, in vivo) was 1–2 weeks. The DLTs (human, in vivo, 28 days) was 4, the “dose-limiting toxicity (DLT)” value (human, in vivo, 28 days) was “Grade-3 psoriasis-like skin toxicity” and the “dose-limiting toxicity (DLT)” value (in vivo) was “rash”.

Reference: article PMC12141164, “Phase-1 study of vamotinib (PF-114), a 3rd generation BCR::ABL1 tyrosine kinase-inhibitor, in chronic myeloid leukaemia” (Annals of Hematology, 2025)
